According to patent US8168647B2, “Vinblastine derivatives, their preparation, use and pharmaceutical compositions comprising the said derivatives” (Shanghai Institute of Materia Medica Chinese Academy of …, priority 2007, dated 2012):
pIC50: −log10 of the molar value. Where a name gives a salt, the structure may show the parent alone. Read-outs that look alike come from different tables or passages of the source. Marks after values point to notes of the source that are not given here.

Key:
sarcoma 180 = assay: In vivo antitumor assay on Sarcoma 180 (S180) in mice; conditions: for inhibition in vivo at 10 mg/kg / inhibition in vivo at 20 mg/kg / inhibition in vivo at 40 mg/kg: Mus musculus, Sarcoma-180, iv; for inhibition in vivo at 40 mg/kg: read-out: Inhibition rate %, 40 mg/kg, iv, d 1, 4
[1] = test system: human non-small cell lung cancer cell line A-549; assay: In vitro cytotoxicity assay, Sulforhodamine B (SRB), A-549; assay type: cell-based; conditions: for IC50: A549, 72 h, read-out: A549 (IC50, nM)
[2] = test system: human cervical carcinoma cell line Hela; assay: In vitro cytotoxicity assay, Sulforhodamine B (SRB), Hela; assay type: cell-based; conditions: Homo sapiens, HeLa; for IC50: 72 h, read-out: Hela (IC50, nM)
[3] = test system: human non-small cell lung cancer (A549) xenografts; assay: Nude mice models bearing human non-small cell lung cancer (A549) xenografts; conditions: for efficacy against A549 xenografts (in words) / toxicity in the mice (in words): iv
[4] = test system: human non-small cell lung cancer (A549) xenografts; conditions: mouse, in vivo
[5] = depending on its concentration and action time; read-out: IC50, in vitro activity; cited from earlier work
[6] = read-out: Inhibition rate %, 10 mg/kg, iv, d 1, 4
[7] = read-out: Inhibition rate %, 20 mg/kg, iv d 1
[8] = 1.5 mg/kg iv once at d0, dn: 12 days after the first administration
[9] = 3 mg/kg iv once at d0, dn: 12 days after the first administration
[10] = 6 mg/kg iv once at d0, dn: 12 days after the first administration
[11] = BM48 tartrate once at d0, vinorelbine tartrate twice at d0 and d4
[12] = read-out: Inhibition rate %, 20 mg/kg, iv, d 1, 4

SMILES | Average weight (g) At sacrifice (sarcoma 180; 10 mg/kg, iv, d 1, 4) | Tumor Weight (g) X ± SD (sarcoma 180; 10 mg/kg, iv, d 1, 4) | Average weight (g) At sacrifice (sarcoma 180; 20 mg/kg, iv d 1) | Tumor Weight (g) X ± SD (sarcoma 180; 20 mg/kg, iv d 1) | inhibition in vivo at 10 mg/kg (sarcoma 180; [6]) | inhibition in vivo at 20 mg/kg (sarcoma 180; [7]) | cell-based efficacy, inhibition of tumor cell proliferation (in words) [1] | IC50 ([1]; Homo sapiens) | IC50 [2] | Average weight (g) At sacrifice (sarcoma 180; 40 mg/kg, iv, d 1, 4) | Tumor Weight (g) X ± SD (sarcoma 180; 40 mg/kg, iv, d 1, 4) | inhibition in vivo at 40 mg/kg (sarcoma 180) | further results
CCC1=C[C@@H]2CN(CCc3c([nH]c4ccccc34)[C@@](C(=O)OC)(c3cc4c(cc3OC)N(C)[C@H]3C(O)(CNC(=O)OC)[C@H](OC(C)=O)[C@]5(CC)C=CCN6CC[C@]43[C@@H]65)C2)C1 (stereo partly shown) [BM48] | 27.1 g | 0.85 ± 0.11 g | 24.2 g | 0.35 ± 0.03 g | 46.9% | 78.1% | excellent cell-based efficacy | 75.3 nM | 34.8 nM | – | – | – | T/C (%) ([3]; 1.5 mg/kg iv once at d0): 74.0%; Body weight (g) dn [3, 8]: 21.3 g; TV (mm^3) x ± SD dn [3, 8]: 2080 ± 542 mm^3; RTV x ± SD ([3]; 1.5 mg/kg iv once at d0, relative tumor volume): 8.18 ± 2.20; T/C (%) ([3]; 3 mg/kg iv once at d0): 62.9* %; Body weight (g) dn [3, 9]: 20.4 g; TV (mm^3) x ± SD dn [3, 9]: 1545 ± 410 mm^3; RTV x ± SD ([3]; 3 mg/kg iv once at d0, relative tumor volume): 6.96 ± 1.79; T/C (%) ([3]; 6 mg/kg iv once at d0): 31.5* %; Body weight (g) dn [3, 10]: 18.8 g; TV (mm^3) x ± SD dn [3, 10]: 808 ± 336 mm^3; RTV x ± SD ([3]; 6 mg/kg iv once at d0, relative tumor volume): 3.48 ± 1.83; efficacy against A549 xenografts (in words) [3, 11]: significantly inhibited; toxicity in the mice (in words) [3, 11]: appeared to show toxicity after the administration of BM48, but could recover well later; efficacy against A549 xenografts (in words) ([3]; BM48 tartrate once at d0, vinorelbine tartrate twice at d0 and d4, listed as BM48 tartrate): comparable to or even a little better than vinorelbine tartrate
CCC1=C[C@@H]2CN(C1)Cc1c([nH]c3ccccc13)[C@@](C(=O)OC)(c1cc3c(cc1OC)N(C)[C@H]1[C@@](O)(C(=O)OC)[C@H](OC(C)=O)[C@]4(CC)C=CCN5CC[C@]31[C@@H]54)C2 [Vinorelbine tartrate, vinorelbine tartrate, reference compound] | 27.5 g | 0.60 ± 0.23 g | – | – | – | – | – | – | – | – | – | – | inhibition in vivo at 10 mg/kg (sarcoma 180; read-out: Inhibition rate %): 62.5%; pIC50 ([1]; Homo sapiens, A549, SRB assay, 72 hours incubation, ditartrate of all compounds used, read-out: A549 (IC50)): 7.64; pIC50 ([2]; SRB assay, 72 hours incubation, ditartrate of all compounds used, read-out: Hela (IC50)): 8.04; toxicity in the mice (in words) [3, 11]: higher toxicity; RTV x ± SD ([3]; mouse, in vivo): 2.66 ± 1.18; T/C (%) ([3]; mouse, in vivo): 24.1* %; TV (mm^3) x ± SD dn ([3]; mouse, in vivo): 550 ± 206 mm^3; efficacy against A549 xenografts (in words) ([3]; mouse, in vivo): a little better efficacy than BM48 tartrate; Body weight (g) dn [4]: 16.4 g
CC[C@]12C=CCN3CC[C@@]4(c5cc([C@@]6(C(=O)OC)C[C@@H]7C[C@@H](C(C)(F)F)CN(Cc8c6[nH]c6ccccc86)C7)c(OC)cc5N(C)[C@H]4[C@@](O)(C(=O)OC)[C@@H]1OC(C)=O)[C@@H]32 [Vinflunine, reference compound] | – | – | – | – | – | – | – | – | – | 28.4 g | 0.44 ± 0.13 g | 72.5% | pIC50 [5]: 6.52 to 7.22
CCC1=C[C@@H]2CN(CCc3c([nH]c4ccccc34)[C@@](C(=O)OC)(c3cc4c(cc3OC)N(C)[C@H]3C(O)(CNC(=O)c5ccc6c(c5)OCO6)[C@H](OC(C)=O)[C@]5(CC)C=CCN6CC[C@]43C65)C2)C1 (stereo partly shown) [BM47] | 25.3 g | 0.67 ± 0.07 g | 23.3 g | 0.54 ± 0.17 g | 58.1% | 66.3% | excellent cell-based efficacy | 14.4 nM | 19 nM | – | – | – | –
CCC1=C[C@@H]2CN(CCc3c([nH]c4ccccc34)[C@@](C(=O)OC)(c3cc4c(cc3OC)N(C)[C@H]3C(O)(CNC(=O)C5CC5)[C@H](OC(C)=O)[C@]5(CC)C=CCN6CC[C@]43[C@@H]65)C2)C1 (stereo partly shown) [BM33] | 22.2 g | 0.30 ± 0.05 g | 23.9 g | 0.18 ± 0.02 g | 81.3% | 88.8% | excellent cell-based efficacy | 26.4 nM | 17 nM | – | – | – | –
CC[C@]12C=CCN3CC[C@@]4(c5cc([C@@]6(C(=O)OC)C[C@@H]7C[C@@H](C(C)(F)F)CN(CCc8c6[nH]c6ccccc86)C7)c(OC)cc5N(C)[C@H]4C(O)(COC(=O)C4CC4)[C@@H]1OC(C)=O)[C@@H]32 (stereo partly shown) [BM76] | – | – | – | – | – | – | – | > 1000 nM | > 1000 nM | 31.8 g | 1.25 ± 0.45 g | 21.9% | Average weight (g) At sacrifice (sarcoma 180; 20 mg/kg, iv, d 1, 4): 31.4 g; Tumor Weight (g) X ± SD (sarcoma 180; 20 mg/kg, iv, d 1, 4): 1.20 ± 0.09 g; inhibition in vivo at 20 mg/kg (sarcoma 180; [12]): 25%
CCC1=C[C@@H]2CN(CCc3c([nH]c4ccccc34)[C@@](C(=O)OC)(c3cc4c(cc3OC)N(C)[C@H]3C(O)(CNC(=O)OCC5CC5)[C@H](OC(C)=O)[C@]5(CC)C=CCN6CC[C@]43[C@@H]65)C2)C1 (stereo partly shown) [BM57] | 25.2 g | 0.26 ± 0.07 g | – | – | 83.8% | – | excellent cell-based efficacy | 60.6 nM | 13.2 nM | – | – | – | –
CC[C@]12C=CCN3CC[C@@]4(c5cc([C@@]6(C(=O)OC)C[C@@H]7C[C@@H](C(C)(F)F)CN(CCc8c6[nH]c6ccccc86)C7)c(OC)cc5N(C)[C@H]4C(O)(CNC(=O)OC)[C@@H]1OC(C)=O)[C@@H]32 (stereo partly shown) [BM79] | – | – | – | – | – | – | – | > 1000 nM | > 1000 nM | 29.5 g | 0.84 ± 0.49 g | 47.5% | Average weight (g) At sacrifice (sarcoma 180; 20 mg/kg, iv, d 1, 4): 33.0 g; Tumor Weight (g) X ± SD (sarcoma 180; 20 mg/kg, iv, d 1, 4): 1.47 ± 0.15 g; inhibition in vivo at 20 mg/kg (sarcoma 180; [12]): 8.1%
